Measurements reported in US20240238309A1, “PHARMACEUTICAL FORMULATIONS OF TREPROSTINIL PRODRUGS AND METHODS OF USE THEREOF” (Insmed Incorporated, priority 2020, published 2024).

Experiment: Solubility of C16TR in propellants
Type: physicochemical
Conditions: HFA134a, HFA227ea, and HFA152a
Source text: C16TR is insoluble in all commercially available propellants (HFA134a, HFA227ea, and HFA152a) and requires the use of alcohol co-solvent. When formulated with DSPE-PEG2000 and PEG400 for use with an MDI as well as desirable in vivo performance, the formulation required approximately 10% of alcohol co-solvent. Such a high level of alcohol co-solvent may lead to reduced chemical stability and aerosol performance. Unexpected improvement in chemical stability was observed when a switch from ethanol (industry standard cosolvent) to isopropyl alcohol (novel excipient) was made, as in the C16TR-MDI-W formulation.

## CCCCCCCCCCCCCCCCOC(=O)COc1cccc2c1C[C@H]1C[C@@H](O)[C@H](CC[C@@H](O)CCCCC)[C@H]1C2 [Formulation C16TR, Treprostinil palmitil]
  solubility in commercially available propellants: insoluble
